Molecular target: T1, STING (Homo sapiens, UniProt Q86WV6, G230A/H232R/R293Q/R71H)
T1 construct: host or cells: THP1-Dual cells (human THP-1 monocyte line with Lucia/SEAP reporters)
Assay: Reporter gene expression assay in THP1-Dual cells (IRF pathway Lucia luciferase, 2',3'-cGAMP stimulation)
Type: cell-based
Conditions: 10 min preincubation, 5 μM 2',3'-cGAMP, 20 hr, IRF reporter QUANTI-Luc, read-out: THP-1 (HAQ) Activity
Method in brief: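 THP1-Dual cells preincubated 10 min with compound, then stimulated with 5 μM 2′,3′-cGAMP for 20 hr. Secreted Lucia luciferase (IRF reporter) measured in supernatant by luminescence; IC50 reported as ranges (A ≤1 μM, B >1–≤10 μM, C >10 μM).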

T1 sequence (Q86WV6 whole entry R71H/G230A/H232R/R293Q): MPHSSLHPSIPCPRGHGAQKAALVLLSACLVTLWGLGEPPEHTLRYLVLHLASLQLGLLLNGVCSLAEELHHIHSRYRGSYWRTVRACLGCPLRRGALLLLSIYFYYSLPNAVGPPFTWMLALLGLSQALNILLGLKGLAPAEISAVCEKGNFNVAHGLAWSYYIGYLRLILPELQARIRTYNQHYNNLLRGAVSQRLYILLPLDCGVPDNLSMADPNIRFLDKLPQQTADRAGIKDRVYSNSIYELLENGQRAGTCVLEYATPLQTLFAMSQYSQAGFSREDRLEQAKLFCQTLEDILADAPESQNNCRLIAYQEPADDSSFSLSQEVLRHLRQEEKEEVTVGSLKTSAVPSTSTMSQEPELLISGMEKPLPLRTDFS

Q: `O=C(Nc1ccc2c(c1)OCCO2)Nc1ccc2c(c1)N(Cc1ccccc1)C(=O)CS2` [Example 23, 1-(4-benzyl-3-oxo-3,4-dihydro-2H-benzo[b] [1,4]thiazin-6-yl)-3-(2,3-dihydrobenzo [b][1,4]dioxin-6-yl)urea] was tested. Which IC50 did it give?
A: 1 to 10 µM

Q: Which IC50 does the source give for `O=C(Nc1ccc2c(c1)N(c1ccccc1)C(=O)CO2)Nc1ccc2cc[nH]c2c1` [Example 183, 1-(1H-indol-6-yl)-3-(3-oxo-4-phenyl-3,4-dihydro-2H-benzo[b][1,4]oxazin-6-yl)urea] here?
A: > 10 µM

Q: How did the IC50 turn out when `O=C(Nc1ccc2c(c1)OCCN2c1ccccc1)Nc1ccc2cc[nH]c2c1` [Example 181, 1-(1H-indol-6-yl)-3-(4-phenyl-3,4-dihydro-2H-benzo[b][1,4]oxazin-7-yl)urea] was run?
A: ≤ 1 µM

Q: `O=C(Nc1ccc2c(c1)N(Cc1ccccc1)CCS2)Nc1c[nH]c2ccccc12` [Example 64, 1-(4-benzyl-3,4-dihydro-2H-benzo[b][1, 4]thiazin-6-yl)-3-(1H-indol-3-yl)urea] was tested. Which IC50 did it give?
A: 1 to 10 µM

Q: For `NC(=O)c1ccccc1CN1C(=O)COc2cc(NC(=O)Nc3ccc4cc[nH]c4c3)ccc21` [Example 144, 2-((7-(3-(1H-indol-6-yl)ureido)-3-oxo-2,3-dihydro-4H-benzo[b][1, 4]oxazin-4-yl)methyl) benzamide], which IC50 is on record?
A: 1 to 10 µM

Q: `CS(=O)(=O)c1cc(Cl)ccc1CN1C(=O)COc2cc(NC(=O)Nc3ccc4cc[nH]c4c3)ccc21` [Example 122, 1-(4-(4-chloro-2-(methylsulfonyl)benzyl)-3-oxo-3,4-dihydro-2H-benzo[b][1,4]oxazin-7-yl)-3-(1H-indol-6-yl)urea] was tested. Which IC50 did it give?
A: 1 to 10 µM

Q: For `O=C1CSc2ccc(OCCc3ccc(F)cc3)cc2N1Cc1c(F)cccc1Cl` [Example 41, 4-(2-Chloro-6-fluorobenzyl)-6-(4-fluorophenethoxy)-2H-benzo[b][1,4]thiazin-3(4H)-one], which IC50 is on record?
A: 1 to 10 µM

Q: For `O=C(Nc1ccc2c(c1)OCC(=O)N2Cc1ccccc1)N1CCc2ccccc2C1` [Example 141, N-(4-benzyl-3-oxo-3,4-dihydro-2H-benzo[b][1, 4]oxazin-7-yl)-3,4-dihydro-isoquinoline-2(1H)-carboxamide], which IC50 is on record?
A: 1 to 10 µM

Q: How did the IC50 turn out when `O=C(Cc1ccc2cc[nH]c2c1)Nc1ccc2c(c1)N(Cc1ccccc1)C(=O)CS2` [Example 47, N-(4-Benzyl-3-oxo-3,4-dihydro-2H-benzo[b][1,4]thiazin-6-yl)-2-(1H-indol-6-yl)acetamide] was run?
A: 1 to 10 µM

Q: How did the IC50 turn out when `O=C1COc2cc(NC(=O)Nc3ccc4cc[nH]c4c3)ccc2N1` [Example 88, 1-(1H-indol-6-yl)-3-(3-oxo-3,4-dihydro-2H-benzo[b][1, 4]oxazin-7-yl)urea] was run?
A: > 10 µM
